Test system: not given
Test: not given
Conditions: not given

Compound | melting point [°C]
c1ccc(-c2csc3ncnc(NCc4ccco4)c23)cc1 [Example 83, Furan-2-ylmethyl-(5-phenyl-thieno[2,3-d]pyrimidin-4-yl)-amine] | 77 to 79
Cc1nc(NCc2ccccn2)c2c(-c3ccccc3)csc2n1 [Example 101, 2-Methyl-N-(2-pyridyl)methyl-5-phenylthieno[2,3-d]pyrimidin-4-ylamine] | 110 to 112
c1ccc(-c2csc3nc(NCC4CC4)nc(NCc4ccccn4)c23)cc1 [Example 188, N^2-Cyclopropylmethyl-5-phenyl-N^4-pyridin-2-ylmethyl-thieno[2,3-d]pyrimidine-2,4-diamine] | 109 to 111
OCCc1nc(NCc2ccccn2)c2c(-c3ccccc3)csc2n1 [Example 250, 2-{5-Phenyl-4-[(pyridin-2-ylmethyl)amino]thieno[2,3-d]pyrimidin-2-yl}ethanol] | 90 to 92
ClCc1nc(NCc2ccccn2)c2c(-c3ccccc3)csc2n1 [Example 301, (2-Chloromethyl-5-phenylthieno[2,3-d]pyrimidin-4-yl)pyridin-2-ylmethylamine] | 97 to 99
Cn1ccc2cc(-c3csc4ncnc(NCc5ccccn5)c34)ccc21 [Example 312, [5-(1-Methyl-1H-indol-5-yl)thieno[2,3-d]pyrimidin-4-yl]pyridin-2-ylmethylamine] | 184 to 185

Target: T1, human Kv1.5 (Homo sapiens, UniProt P22460)
T1 construct: expressed in transfected cells; stably transfected, blasticidin selection
Test: Kv1.5 Rb+ efflux assay
Format: cell-based
Conditions: inhibition of 86Rb+ efflux through Kv1.5, cells stably transfected with human Kv1.5, 10 point concentration response curves n=2
Protocol: The pore of a potassium channel is permeable to other monovalent cations such as Rb^+ and Tl^+. Analysis of cellular efflux of potassium channel permeable ions enables potassium channel activity to be monitored directly. Cells stably transfected with cDNA for human Kv1.5 (in pEF6::VA-His-TOPO) were grown in Dulbecco's Modified Eagle media (DMEM) alpha supplemented with 10% Fetal Calf Serum (FCS), 20 μl/ml penicillin (5000 U/ml) streptomycin (5000 μg/ml), 10 μl/ml [100×] glutamine, and blasticidin (7.5 μg/ml). Cells were dispensed into 96 well cellstar TC plates and allowed to grow until a confluent monolayer was visible. On the morning of the assay run, cold media was aspirated using the TECAN plate washer, and a 50 μl media spike containing 2 μCi/ml (37 kBq/ml) ^86Rb^+ added to each well containing cells using the Shallow-Well Matrix Platemate. Plates were placed in a incubator at 37° C. for a minimum of 3 hours. Unloaded ^86Rb^+ in the “hot” media was aspirated and each well washed 4×250 μl with Earls Balanced Salt Solution (EBSS) which contained 5 mM KCl, 140 mM NaCl, 2 mM CaCl2, 1 mM MgSO4, 10 mM HEPES, and 5 mM glucose, pH 7.4, 290-300 mOsm. These cells were then pre-incubated with 50 μl of EBSS+/−test compounds for 10 minutes at room temperature. After the 10 minute incubation, 50 μl of modified EBSS which contained 145 mM KCl, 2 mM CaCl2, 1 mM MgSO4, 10 mM HEPES, 5 mM glucose, pH 7.4, 290-300 mOsm, was added, and the cells were incubated for a further 10 minutes at room temperature. The high KCl EBSS was used to depolarise cells to a membrane potential that would activate Kv1.5 channels. After the final incubation 80 μl/100 μl of the reaction from each well was transferred to equivalent wells in a Packard “Optiplate” white 96 well plate and counted in a Packard TopCount liquid scintillation counter by Cerenkov emission. Percentage inhibition ^86Rb^+ efflux through Kv1.5 was calculated by normalisation to 2.5 mM 4 amino-pyridine control block of Kv1.5. Alternatively cells were loaded with ^85Rb^+ and quantified by atomic absorption spectroscopy. IC50 determinations were derived from 10 point concentration response curves n=2 using the method described above. Data was fitted as variable slope sigmoidal fit using Graphpad Prism (V3.02) software.

T1 sequence (P22460 whole entry): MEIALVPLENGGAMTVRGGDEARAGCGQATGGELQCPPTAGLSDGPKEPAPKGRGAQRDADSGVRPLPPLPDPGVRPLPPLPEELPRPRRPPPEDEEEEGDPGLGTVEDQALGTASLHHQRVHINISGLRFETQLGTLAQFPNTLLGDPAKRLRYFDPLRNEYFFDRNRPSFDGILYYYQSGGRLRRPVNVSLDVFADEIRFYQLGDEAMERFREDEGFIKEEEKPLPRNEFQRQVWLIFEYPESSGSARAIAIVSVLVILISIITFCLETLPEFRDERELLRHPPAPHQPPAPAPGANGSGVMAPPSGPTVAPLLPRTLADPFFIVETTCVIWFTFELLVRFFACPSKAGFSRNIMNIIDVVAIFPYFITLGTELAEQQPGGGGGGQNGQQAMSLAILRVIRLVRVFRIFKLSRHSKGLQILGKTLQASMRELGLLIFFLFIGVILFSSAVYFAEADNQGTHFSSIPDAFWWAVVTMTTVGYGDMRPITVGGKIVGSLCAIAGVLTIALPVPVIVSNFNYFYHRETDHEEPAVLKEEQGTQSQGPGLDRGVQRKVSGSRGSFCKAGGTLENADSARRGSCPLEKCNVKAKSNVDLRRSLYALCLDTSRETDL

Compound | IC50 [nM]
COc1ccc(-c2csc3ncnc(NCc4ccccn4)c23)cc1 [Example 138, [5-(4-Methoxy-phenyl)-thieno[2,3-d]pyrimidin-4-yl]-pyridin-2-ylmethyl-amine] | 220
CC(Nc1ncnc2scc(-c3ccccc3)c12)c1ccccn1 (centres unmarked) [Example 149, (5-Phenyl-thieno[2,3-d]pyrimidin-4-yl)-(1-pyridin-2-yl-ethyl)-amine] | 370
COCCNc1nc(NCc2ccccn2)c2c(-c3ccccc3)csc2n1 [Example 189, N^2-(2-Methoxyethyl)-5-phenyl-N^4-(pyridin-2-ylmethyl)thieno[2,3-d]pyrimidine-2,4-diamine] | 280
Nc1nc(NCc2ccccn2)c2c(-c3ccccc3)csc2n1 [Example 192, 5-Phenyl-N-4-pyridin-2-ylmethyl-thieno[2,3-d]pyrimidine-2,4-diamine] | 2180
CN(C)c1nc(NCc2ccccn2)c2c(-c3ccccc3)csc2n1 [Example 198, N^2,N^2-Dimethyl-5-phenyl-N^4-pyridin-2-ylmethyl-thieno[2,3-d]pyrimidine-2,4-diamine] | 570

Target: hKv1.5 (Homo sapiens, UniProt P22460)
Test: Kv1.5 Autopatch electrophysiology (whole cell patch-clamp)
Format: cell-based
Conditions: hKv1.5 current, compound at 1 μM
Protocol: The external bathing solution contained (in mM): 150 NaCl, 10 KCl, […], 3 MgCl2, 1 CaCl2, 10 HEPES, pH 7.4. Patch pipettes were filled with an electrode solution of composition (in mM): 160 KCl, 0.5 MgCl2, 10 HEPES, 1 EGTA, pH 7.4 with KOH.
Compounds were dissolved in DMSO (100%) and made up in the external bather at a concentration of 1 μM. All experiments were conducted at room temperature (22-24° C.).
A cell suspension (10 ml), with a density of 100,000 cells/ml, was aliquoted into a 15 ml centrifuge tube and transferred to an incubator (37° C., 5% CO2) for approximately one hour before use. Following 60 min incubation, a tube was taken and centrifuged at 1000 rpm for 4 mins at room temperature. 9.5 ml supernatant was thence discarded, leaving a cell pellet at the bottom of the tube. The pellet was then resuspended using 100 μl of cold (4° C.), filtered (0.22 μm), 0.2% BSA/bather solution (0.02 g BSA/10 ml bather). The bottom of the tube was manually agitated gently until the solution became cloudy with cells. The 100 μl cell resuspension solution was then stored on the bench at 4° C. (using a Peltier-based temperature control device) until used.
A length of capillary glass (1B150E-4, WPI) was dipped into the cell suspension solution, such that ˜3 cm column of fluid was taken up by capillary action. A Ag/AgCl wire was dropped into the non-dipped end of the capillary also. The outside of the solution-filled end of the capillary was then dried and the capillary was loaded into the AutoPatch™
Borosilicate glass patch pipettes (from 1.5 mm OD, thin-walled filamented, GC150-TF capillary glass, Harvard) were pulled using a DMZ pipette puller (Zeitz Instruments), and were back-filled using the internal pipette solution, being careful that no bubbles remain at the tip or in the body of the pipette. […]
Electrophysiology voltage-step protocols and analysis of data was performed as follows. […] Currents were analysed using Pulsefit software (v8.54, HEKA, Germany), with the total charge measured during the whole of the voltage step. […]

hKv1.5, sequence (P22460 whole entry): as above

Compound | % Inhibition at 1 μM [%] | inhibition at 1 µM [%]
3-{5-Phenyl-4-[(pyridin-2-ylmethyl)-amino]-thieno[2,3-d]pyrimidin-2-ylamino)}-propane-1,2-diol [Example 214] | 87.0 | –
c1ccc(-c2csc3ncnc(NCC4CCCCC4)c23)cc1 [Example 89, Cyclohexylmethyl-(5-phenyl-thieno[2,3-d]pyrimidin-4-yl)-amine] | – | 73.4
COCc1nc(NCc2ccccn2)c2c(-c3ccccc3)csc2n1 [Example 305, (2-Methoxymethyl-5-phenylthien[2,3-d]primidin-4-yl)pyridin-2-ylmethylamine] | 94.0 | –

Source: patent US8022076B2, “Substituted thieno[2,3-d]pyrimidines as potassium channel inhibitors” (Xention Limited, priority 2003, dated 2011)
